PubChem BioAssay AID1963849 (Molecular Pharmacology Branch, DTP, NCI, 2024)

System: 299254-011-R-J1-PDC complex spheroid viability
Assay: Anticancer human tumor 299254-011-R-J1-PDC patient-derived melanoma cell line growth inhibition [POLQ]
Settings: for IC50: curve of first compound; for viability, T/C: stronger effect = lower value
Procedure, shortened: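 Patient-derived tumour cells were co-cultured with HUVEC and mesenchymal stem cells as multicellular spheroids at 37 °C. They were treated with POLQ inhibitors (novobiocin, ART-558, RP6685) alone or combined with other agents. Top concentrations were at or near clinical Cmax (otherwise 10 microM; SN-38 at 1 microM), decreasing in half-log steps.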

[1] = second compound 0.0316 µM, first compound 0.0316 µM
[2] = second compound 0.0316 µM, first compound 0.1 µM
[3] = second compound 0.0316 µM, first compound 0.316 µM
[4] = second compound 0.0316 µM, first compound 1 µM
[5] = second compound 0.0316 µM, first compound 3.16 µM
[6] = second compound 0.0316 µM, first compound 10 µM
[7] = second compound 0.1 µM, first compound 0.0316 µM
[8] = second compound 0.1 µM, first compound 0.1 µM
[9] = second compound 0.1 µM, first compound 0.316 µM
[10] = second compound 0.1 µM, first compound 1 µM
[11] = second compound 0.1 µM, first compound 3.16 µM
[12] = second compound 0.1 µM, first compound 10 µM
[13] = second compound 0.316 µM, first compound 0.0316 µM
[14] = second compound 0.316 µM, first compound 0.1 µM
[15] = second compound 0.316 µM, first compound 0.316 µM
[16] = second compound 0.316 µM, first compound 1 µM
[17] = second compound 0.316 µM, first compound 3.16 µM
[18] = second compound 0.316 µM, first compound 10 µM
[19] = second compound 1 µM, first compound 0.0316 µM
[20] = second compound 1 µM, first compound 0.1 µM
[21] = second compound 1 µM, first compound 0.316 µM
[22] = second compound 1 µM, first compound 1 µM
[23] = second compound 1 µM, first compound 3.16 µM
[24] = second compound 1 µM, first compound 10 µM
[25] = second compound 3.16 µM, first compound 0.0316 µM
[26] = second compound 3.16 µM, first compound 0.1 µM
[27] = second compound 3.16 µM, first compound 0.316 µM
[28] = second compound 3.16 µM, first compound 1 µM
[29] = second compound 3.16 µM, first compound 3.16 µM
[30] = second compound 3.16 µM, first compound 10 µM
[31] = second compound 10 µM, first compound 0.0316 µM
[32] = second compound 10 µM, first compound 0.1 µM
[33] = second compound 10 µM, first compound 0.316 µM
[34] = second compound 10 µM, first compound 1 µM
[35] = second compound 10 µM, first compound 3.16 µM
[36] = second compound 10 µM, first compound 10 µM
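Also: spheroids exposed to drugs for one week before measurement.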
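For viability, T/C in this document: percent viability relative to DMSO vehicle control taken as 100%.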

## O=c1[nH]cc(F)c(=O)[nH]1 + Cc1cccc(N(C)C(=O)C2C(O)CCN2c2nc(C)cc(C(F)(F)F)c2C#N)c1
Second compound 0.0316 µM
  IC50: > 10 µM
Second compound 0.1 µM
  IC50: > 10 µM
Second compound 0.316 µM
  IC50: > 10 µM
Second compound 1 µM
  IC50: > 10 µM
Second compound 3.16 µM
  IC50: > 10 µM
Second compound 10 µM
  IC50: > 10 µM
[1]
  viability, T/C: 115%
[2]
  viability, T/C: 88%
[3]
  viability, T/C: 105%
[4]
  viability, T/C: 97.3%
[5]
  viability, T/C: 76.1%
[6]
  viability, T/C: 73%
[7]
  viability, T/C: 105%
[8]
  viability, T/C: 92.4%
[9]
  viability, T/C: 96%
[10]
  viability, T/C: 94.8%
[11]
  viability, T/C: 88.1%
[12]
  viability, T/C: 81.2%
[13]
  viability, T/C: 111%
[14]
  viability, T/C: 118%
[15]
  viability, T/C: 106%
[16]
  viability, T/C: 99.3%
[17]
  viability, T/C: 98.9%
[18]
  viability, T/C: 67.6%
[19]
  viability, T/C: 112%
[20]
  viability, T/C: 99.7%
[21]
  viability, T/C: 98.2%
[22]
  viability, T/C: 92.3%
[23]
  viability, T/C: 88%
[24]
  viability, T/C: 68.1%
[25]
  viability, T/C: 114%
[26]
  viability, T/C: 103%
[27]
  viability, T/C: 89.1%
[28]
  viability, T/C: 114%
[29]
  viability, T/C: 90.3%
[30]
  viability, T/C: 65.2%
[31]
  viability, T/C: 103%
[32]
  viability, T/C: 98%
[33]
  viability, T/C: 93.4%
[34]
  viability, T/C: 87%
[35]
  viability, T/C: 80.9%
[36]
  viability, T/C: 69.3%

## COc1ccc([C@@H](O)c2cc(-c3ncnc4cc(N5CCOCC5)ccc34)c(F)cc2Cl)nn1 + COC1C(OC(N)=O)C(O)C(Oc2ccc3c(O)c(NC(=O)c4ccc(O)c(CC=C(C)C)c4)c(=O)oc3c2C)OC1(C)C
Second compound 0.0316 µM
  IC50: 9.66 µM
Second compound 0.1 µM
  IC50: 8.91 µM
Second compound 0.316 µM
  IC50: 8.8 µM
Second compound 1 µM
  IC50: > 10 µM
Second compound 3.16 µM
  IC50: > 10 µM
Second compound 10 µM
  IC50: 8.74 µM
[1]
  viability, T/C: 103%
[2]
  viability, T/C: 90.6%
[3]
  viability, T/C: 97.7%
[4]
  viability, T/C: 109%
[5]
  viability, T/C: 102%
[6]
  viability, T/C: 48.3%
[7]
  viability, T/C: 115%
[8]
  viability, T/C: 109%
[9]
  viability, T/C: 114%
[10]
  viability, T/C: 99%
[11]
  viability, T/C: 89.8%
[12]
  viability, T/C: 45.4%
[13]
  viability, T/C: 116%
[14]
  viability, T/C: 125%
[15]
  viability, T/C: 118%
[16]
  viability, T/C: 106%
[17]
  viability, T/C: 86.7%
[18]
  viability, T/C: 45.4%
[19]
  viability, T/C: 118%
[20]
  viability, T/C: 107%
[21]
  viability, T/C: 101%
[22]
  viability, T/C: 110%
[23]
  viability, T/C: 90.6%
[24]
  viability, T/C: 54.5%
[25]
  viability, T/C: 128%
[26]
  viability, T/C: 96.3%
[27]
  viability, T/C: 109%
[28]
  viability, T/C: 103%
[29]
  viability, T/C: 85.1%
[30]
  viability, T/C: 51.1%
[31]
  viability, T/C: 107%
[32]
  viability, T/C: 107%
[33]
  viability, T/C: 105%
[34]
  viability, T/C: 87.1%
[35]
  viability, T/C: 92.9%
[36]
  viability, T/C: 44%
